Legend:
S. aureus = test: Agar diffusion growth inhibition zone, S. aureus; assay type: cell-based, Staphylococcus aureus; conditions: for zone of inhibition at 100 mg/mL / zone of inhibition at 150 mg/mL: Staphylococcus aureus, 6 mm = no activity
Procedure: (§1) Among the bacterial agents tested Gram positive and Gram negative bacterial groups represented by Staphylococcus aureus and Enterococcus species and pathogenic members of Enterobacteriaceae, Vibronaceae, Aeromonadaceae, Pseudomonadaceae were tested. Freshly sub-cultured bacterial strains were inoculated into peptone water and incubated for 4 hours at 37° C. and adjusted to a turbidity of 0.5 (Gram Negative Bacilli), 1 (Gram Positive Cocci) and 4 (Pus cells, GNB, & few Budding yeast cells) Mc Farland standards (10^8 CFU/ml) respectively.
(§2) The different bioactive compounds and their derivatives were dissolved and diluted with solvents (DMSO), number of subsequent dilutions was performed to obtain different concentrations of the bioactive compounds and their derivatives. (Working Concentrations).
(§3) Agar well diffusion method is widely used to evaluate the antimicrobial activity of plants or other synthetic products. The suspension (microbial inoculum) was used to inoculate into Muller Hinton Agar Petri plates by lawn culture. Well (diameter 6 mm) were punched in the agar by sterile borer and filled with 50 μl of dissolved extracts. Plates were incubated in incubator at 37° C. for 24 hours and measured the growth inhibition zone diameters in mm compared with that of control (DMSO) showing no growth.
(§4) The bioactive compounds were tested with desired concentrations in 6 mm filter paper discs (Whatman, no. 3) were impregnated with 10 μL of each of the different dilutions. The discs were allowed to remain at room temperature until complete diluent evaporation and kept under refrigeration until ready to be used. 10 μL of diluents used to products were used as control. Tests were performed by Agar disk-diffusion testing method, which is the official method used in many clinical microbiology laboratories for routine antimicrobial susceptibility testing.
(§5) Similar to the procedure used in Agar well diffusion method, the suspension (microbial inoculum) was used to inoculate into Muller Hinton Agar Petri plates by lawn culture. Then, filter paper discs (about 6 mm in diameter), containing the test compound at a desired concentration, were placed on the agar surface. The Petri dishes were incubated under suitable incubation conditions.
(§6) Bioactive compounds showing zone of inhibition beyond the size of 6 mm are considered to be having an anti-microbial activity.

Enterococcus sp. = test: Agar diffusion growth inhibition zone, Enterococcus sp.; assay type: cell-based, Enterococcus species; conditions: 6 mm = no activity
Procedure: as §1, §2, §3, §4, §5, §6

Salmonella typhimurium = test: Agar diffusion growth inhibition zone, Salmonella typhimurium; assay type: cell-based; conditions: Salmonella enterica, 6 mm = no activity
Procedure: as §1, §2, §3, §4, §5, §6

Proteus sp. = test: Agar diffusion growth inhibition zone, Proteus sp.; assay type: cell-based, Proteus species; conditions: for zone of inhibition at 150 mg/mL: Proteus sp., 6 mm = no activity; for zone of inhibition: Proteus species, at both concentrations of 100 mg and 150 mg
Procedure: as §1, §2, §3, §4, §5, §6

E. coli ATCC 25922 = test: Agar diffusion growth inhibition zone, E. coli ATCC 25922; assay type: cell-based; conditions: Escherichia coli, 6 mm = no activity; for zone of inhibition at 100 mg/mL: ATCC25922, 100 mg; for zone of inhibition at 150 mg/mL: ATCC25922, 150 mg
Procedure: as §1, §2, §3, §4, §5, §6

EAEC = test: Agar diffusion growth inhibition zone, EAEC; assay type: cell-based, Enteroaggregative E. coli; conditions: Escherichia coli, 6 mm = no activity
Procedure: as §1, §2, §3, §4, §5, §6

ETEC = test: Agar diffusion growth inhibition zone, ETEC; assay type: cell-based, Enterotoxigenic E. coli; conditions: for inhibition of growth: ETEC; for zone of inhibition at 100000 µg/disc / zone of inhibition at 150000 µg/disc: Escherichia coli
Procedure: (§7) Agar well diffusion method is widely used to evaluate the antimicrobial activity of plants or other synthetic products. The suspension (microbial inoculum) was used to inoculate into Muller Hinton Agar Petri plates by lawn culture. Well (diameter 6 mm) were punched in the agar by sterile borer and filled with 50 μl of dissolved extracts. Plates were incubated in incubator at 37° C. for 24 hours and measured the growth inhibition zone diameters in mm compared with that of control (DMSO) showing no growth. The antimicrobial agent diffuses in the agar medium and inhibits the growth of the microbial strain tested (Valgas et al., (2016) Methods for in vitro evaluating antimicrobial activity: A review. Journal of Pharmaceutical Analysis. 6(2):71-9).
(§8) Similar to the procedure used in Agar well diffusion method, the suspension (microbial inoculum) was used to inoculate into Muller Hinton Agar Petri plates by lawn culture. Then, filter paper discs (about 6 mm in diameter), containing the test compound at a desired concentration, were placed on the agar surface. The Petri dishes were incubated under suitable incubation conditions. Generally, antimicrobial agent diffuses into the agar and inhibits germination and growth of the test microorganism and then the diameters of inhibition growth zones are measured (Valgas et al., (2007) Screening methods to determine antibacterial activity of natural products. Brazilian Journal of Microbiology. 38:369-80; Balouiri M et al., (2016) Methods for in vitro evaluating antimicrobial activity: A review. Journal of Pharmaceutical Analysis. 6(2):71-9).

Shigella sp. = test: Agar diffusion growth inhibition zone, Shigella sp.; assay type: cell-based, Shigella species; conditions: Shigella
Procedure: as §7, §8

Pseudomonas sp. = test: Agar diffusion growth inhibition zone, Pseudomonas sp.; assay type: cell-based, Pseudomonas species; conditions: Pseudomonas
Procedure: as §7, §8

Klebsiella sp. = test: Agar diffusion growth inhibition zone, Klebsiella sp.; assay type: cell-based, Klebsiella species; conditions: 6 mm = no activity
Procedure: as §1, §2, §3, §4, §5, §6

Aeromonas sp. = test: Agar diffusion growth inhibition zone, Aeromonas sp.; assay type: cell-based, Aeromonas species; conditions: Aeromonas sp., 6 mm = no activity
Procedure: as §1, §2, §3, §4, §5, §6

Pleisiomonas sp. = test: Agar diffusion growth inhibition zone, Pleisiomonas sp.; assay type: cell-based, Pleisiomonas species; conditions: for zone of inhibition at 100 mg/mL / zone of inhibition at 150 mg/mL: Pleisiomonas sp., 6 mm = no activity; for inhibition of growth: Plesiomonas species
Procedure: as §1, §2, §3, §4, §5, §6

Candida abicans = test: Agar diffusion growth inhibition zone, Candida abicans; assay type: cell-based, Candida albicans; conditions: 6 mm = no activity
Procedure: as §1, §2, §3, §4, §5, §6

Vibrio cholera = test: Agar diffusion growth inhibition zone, Vibrio cholera; assay type: cell-based, Vibrio cholerae; conditions: Vibrio cholerae
Procedure: as §7, §8

Citrobacter sp. = test: Agar diffusion growth inhibition zone, Citrobacter sp.; assay type: cell-based, Citrobacter species; conditions: 6 mm = no activity
Procedure: as §1, §2, §3, §4, §5, §6

Row | Structure (SMILES) | zone of inhibition at 100 mg/mL (S. aureus) | zone of inhibition at 150 mg/mL (S. aureus) | zone of inhibition at 100 mg/mL (Enterococcus sp.) | zone of inhibition at 150 mg/mL (Enterococcus sp.) | zone of inhibition at 100 mg/mL (Salmonella typhimurium) | zone of inhibition at 150 mg/mL (Salmonella typhimurium) | zone of inhibition at 150 mg/mL (Proteus sp.) | zone of inhibition at 100 mg/mL (E. coli ATCC 25922) | zone of inhibition at 150 mg/mL (E. coli ATCC 25922) | zone of inhibition at 100 mg/mL (EAEC) | zone of inhibition at 150 mg/mL (EAEC) | zone of inhibition at 100000 µg/disc (Shigella sp.) | zone of inhibition at 150000 µg/disc (Shigella sp.) | zone of inhibition at 100000 µg/disc (Pseudomonas sp.) | zone of inhibition at 150000 µg/disc (Pseudomonas sp.) | zone of inhibition at 100 mg/mL (Klebsiella sp.) | zone of inhibition at 150 mg/mL (Klebsiella sp.) | zone of inhibition at 100 mg/mL (Aeromonas sp.) | zone of inhibition at 150 mg/mL (Aeromonas sp.) | zone of inhibition at 100 mg/mL (Pleisiomonas sp.) | also measured
1 | COc1cc(/C=C/C(=O)CC(=O)/C=C/c2ccc(O)c(OC)c2)ccc1O [compound 1, Curcumin] | 10 mm | 10 mm | 6 mm | 6 mm | 6 mm | 6 mm | 11 mm | 6 mm | 6 mm | 6 mm | 6 mm | 6 mm | 6 mm | 6 mm | 6 mm | 6 mm | 6 mm | 6 mm | 6 mm | 10 mm | zone of inhibition (S. aureus; concentration not given): 10 mm; zone of inhibition (Proteus sp.): 11 mm; inhibition of growth (ETEC): significantly inhibited the growth; zone of inhibition at 100000 µg/disc (ETEC): 10 mm; zone of inhibition at 150000 µg/disc (ETEC): 10 mm; zone of inhibition at 150 mg/mL (Pleisiomonas sp.): 10 mm; inhibition of growth (Pleisiomonas sp.): inhibited; zone of inhibition at 100 mg/mL (Candida abicans): 6 mm; zone of inhibition at 150 mg/mL (Candida abicans): 6 mm; inhibition of growth (Vibrio cholera): inhibited the growth; zone of inhibition at 100000 µg/disc (Vibrio cholera): 10 mm; zone of inhibition at 150000 µg/disc (Vibrio cholera): 6 mm; zone of inhibition at 100 mg/mL (Citrobacter sp.): 6 mm; zone of inhibition at 150 mg/mL (Citrobacter sp.): 6 mm
2 | O=C(/C=C/c1ccc(O)cc1)CC(=O)/C=C/c1ccc(O)cc1 [compound 3, Bis- demethoxycurcumin] | 6 mm | 6 mm | 6 mm | 6 mm | 6 mm | 6 mm | 7 mm | 6 mm | 6 mm | 6 mm | 6 mm | 6 mm | 6 mm | 6 mm | 6 mm | 6 mm | 6 mm | 6 mm | 6 mm | 9 mm | zone of inhibition (Proteus sp.): 7 mm; inhibition of growth (ETEC): significantly inhibited the growth; zone of inhibition at 100000 µg/disc (ETEC): 9 mm; zone of inhibition at 150000 µg/disc (ETEC): 9 mm; zone of inhibition at 150 mg/mL (Pleisiomonas sp.): 9 mm; inhibition of growth (Pleisiomonas sp.): inhibited; zone of inhibition at 100 mg/mL (Candida abicans): 6 mm; zone of inhibition at 150 mg/mL (Candida abicans): 6 mm; zone of inhibition at 100000 µg/disc (Vibrio cholera): 6 mm; zone of inhibition at 150000 µg/disc (Vibrio cholera): 6 mm; zone of inhibition at 100 mg/mL (Citrobacter sp.): 6 mm; zone of inhibition at 150 mg/mL (Citrobacter sp.): 6 mm
3 | COc1cc(/C=C/C(=O)CC(=O)/C=C/c2ccc(OC(C)=O)c(OC)c2)ccc1OC(C)=O [compound 4, O,O′- Diacetylcurcumin] | 6 mm | 6 mm | 6 mm | 6 mm | 6 mm | 6 mm | 6 mm | 6 mm | 6 mm | 6 mm | 6 mm | 6 mm | 6 mm | 6 mm | 6 mm | 6 mm | 6 mm | 6 mm | 6 mm | 6 mm | inhibition of growth (ETEC): significantly inhibited the growth; zone of inhibition at 100000 µg/disc (ETEC): 9 mm; zone of inhibition at 150000 µg/disc (ETEC): 9 mm; zone of inhibition at 150 mg/mL (Pleisiomonas sp.): 6 mm; zone of inhibition at 100 mg/mL (Candida abicans): 6 mm; zone of inhibition at 150 mg/mL (Candida abicans): 6 mm; zone of inhibition at 100000 µg/disc (Vibrio cholera): 6 mm; zone of inhibition at 150000 µg/disc (Vibrio cholera): 6 mm; zone of inhibition at 100 mg/mL (Citrobacter sp.): 6 mm; zone of inhibition at 150 mg/mL (Citrobacter sp.): 6 mm
4 | COc1cc(CCc2cc(CCc3ccc(O)c(OC)c3)on2)ccc1O [compound 8, Tetrahydrocurcumin Isoxazole] | 6 mm | 6 mm | 6 mm | 6 mm | 6 mm | 6 mm | 6 mm | 6 mm | 6 mm | 8 mm | 8 mm | 6 mm | 6 mm | 6 mm | 6 mm | 6 mm | 6 mm | 6 mm | 6 mm | 6 mm | zone of inhibition at 150 mg/mL (Pleisiomonas sp.): 6 mm; zone of inhibition at 100 mg/mL (Candida abicans): 6 mm; zone of inhibition at 150 mg/mL (Candida abicans): 6 mm; zone of inhibition at 100000 µg/disc (Vibrio cholera): 6 mm; zone of inhibition at 150000 µg/disc (Vibrio cholera): 6 mm; zone of inhibition at 100 mg/mL (Citrobacter sp.): 6 mm; zone of inhibition at 150 mg/mL (Citrobacter sp.): 6 mm

— US20190365843A1, “Antimicrobial Activity of Bioactive Compounds and Their Derivatives” (priority 2018, published 2019)
